# Measurements reported in US11738065B2, “Polypeptides and analogues thereof for use in the treatment of diabetes and bone disorders” (UNIVERSITY OF ULSTER, priority 2015, dated 2023).
# Where a SMILES comes first, the peptide text is derived from it. [ ]: non-standard residue; d: D form.
# Key:
# DPP-4 = molecular target: T1, DPP-4 (Sus scrofa, UniProt P22411); test: DPP-4 degradation / in vitro DPP-4 half-life; type: in vitro ADME, porcine; conditions: pig; 37° C., 50 mmol/L TEA-HCl pH 7.8, 5 mU purified porcine DPP-4, 0-12 h
# T1 construct: purchased Sigma-Aldrich, Dorset, UK
# Description: (§1) For calculation of experimental molecular masses, peptide samples (1 μg) were mixed with α-cyano-4-hydroxycinnamic acid (1 μg) and applied to a Voyager-DE BioSpectrometry Workstation and mass-to-charge (m/z) ratio verses peak intensity recorded by MALDI-TOF mass spectrometry. […] Degradation profiles were obtained using rp-HPLC analysis and HPLC peak area data used to calculate percentage intact peptide remaining at each time point.
# (§2) Briefly, polypeptides (20 μg) were incubated with 5 μl of purified DPP-4 (5 mU, Sigma-Aldrich, Dorset, UK) in 50 mM TEA-HCl (pH 7.8; final volume 450 μl) at 37° C. for 0, 1, 4 and 12 hours. Enzymatic reactions were terminated by the addition of 50 μl TFA/H2O (10% v/v, Sigma-Aldrich, Dorset, UK). Reaction products were then separated by HPLC and analysed using MALDI-TOF.
# purified porcine DPP-4 = molecular target: T2, purified porcine DPP-4 (Sus scrofa, UniProt P22411); test: DPP-4 degradation / in vitro DPP-4 half-life; type: in vitro ADME; conditions: incubated in the presence of DPP-4 for up to 12 hs
# T2 construct: purchased Sigma-Aldrich, Dorset, UK
# Description: as §1, §2
# BRIN-BD11 cells = test: In vitro insulin secretion from BRIN-BD11 cells; type: cell-based; conditions: 20 min; for Insulin secretion from BRIN-BD11 cells: 10^−6 mol/l peptide, vs 5.6 and 16.7 mmol/l glucose control
# Description: BRIN-BD11 cells were used to assess the insulin releasing activity of polypeptides as described by […] et al., 1996 (Diabetes. 1996 August; 45(8):1132-40). Cells were cultured in RPMI-1640 growth media supplemented with 10% (v/v) foetal bovine serum (FBS) and 1% (v/v) antibiotics (penicillin (100 U/ml), streptomycin ([…])), in 75 cm2 sterile tissue culture flasks (Greiner bio-one, UK) maintained at 37° C. and 5% CO2 in a LEEC incubator (Laboratory technical engineering, Nottingham, UK). BRIN-BD11 cells were then seeded at a density of 150,000 cells/well in 24-well plates (Nunc, Roskilde, Denmark) and allowed to attach overnight at 37° C.
# lean control mice [1] = test: Acute food intake in lean control mice; type: in vivo; conditions: 250 nmol/kg i.p.
# Description: Acute animal studies were conducted in male NIH Swiss mice (12-14 weeks old, Harlan Ltd, UK) maintained on a standard rodent maintenance diet (10% fat, 30% protein and 60% carbohydrate, Trouw Nutrition, Cheshire, UK). […] All animals were housed individually in an air-conditioned room at 22±2° C. with a 12 h light:12 h dark cycle and had free access to food and water. All animal experiments were carried out in accordance with the UK Animals (Scientific Procedures) Act 1986.
# lean control mice [2] = test: Acute and persistent glucose lowering and insulin releasing effects in lean control mice; type: in vivo
# Description: All animal experiments were carried out in accordance with the UK Animals (Scientific Procedures) Act 1986. For food intake studies, fasted (18 h) mice were given intraperitoneal (i.p) injections of polypeptides at a dose of 25, 100 or 250 nmol/kg bw. Mice were then allowed free access to normal chow for 180 mins and cumulative food intake measured. […] Blood samples were collected from the cut tip on the tail vein of conscious mice into chilled fluoride/heparin glucose micro-centrifuge tubes (Sarstedt, Numbrecht, Germany) at the time points indicated in the Drawings. Blood glucose was measured directly using a hand-held Ascencia Contour blood glucose meter (Bayer Healthcare, Newbury, Berkshire, UK).
# T1 sequence (P22411 whole entry): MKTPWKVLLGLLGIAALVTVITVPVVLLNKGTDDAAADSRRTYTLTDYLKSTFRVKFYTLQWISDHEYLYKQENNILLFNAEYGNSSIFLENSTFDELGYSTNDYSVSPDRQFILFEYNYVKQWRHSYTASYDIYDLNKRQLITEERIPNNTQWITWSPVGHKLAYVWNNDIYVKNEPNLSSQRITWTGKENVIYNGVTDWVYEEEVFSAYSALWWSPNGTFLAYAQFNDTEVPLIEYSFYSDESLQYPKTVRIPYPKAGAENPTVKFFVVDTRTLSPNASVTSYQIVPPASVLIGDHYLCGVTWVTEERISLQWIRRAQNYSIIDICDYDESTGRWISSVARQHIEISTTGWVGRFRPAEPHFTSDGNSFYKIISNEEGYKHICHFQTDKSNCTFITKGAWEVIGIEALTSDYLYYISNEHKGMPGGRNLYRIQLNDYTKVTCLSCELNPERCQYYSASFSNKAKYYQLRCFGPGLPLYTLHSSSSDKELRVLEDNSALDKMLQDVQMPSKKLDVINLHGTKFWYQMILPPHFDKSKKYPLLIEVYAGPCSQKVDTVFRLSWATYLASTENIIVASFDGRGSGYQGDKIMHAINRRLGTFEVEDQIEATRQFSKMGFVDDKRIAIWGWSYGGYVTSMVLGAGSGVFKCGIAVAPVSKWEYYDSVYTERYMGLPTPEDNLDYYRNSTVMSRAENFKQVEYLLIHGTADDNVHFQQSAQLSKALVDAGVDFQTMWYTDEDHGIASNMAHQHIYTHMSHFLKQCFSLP
# T2 sequence (P22411 whole entry): as above
molecule,measurement,setting,value
"CC[C@H](C)[C@H](NC(=O)[C@H](CO)NC(=O)[C@H](Cc1ccc(O)cc1)NC(=O)[C@H](CC(=O)O)NC(=O)[C@H](CO)NC(=O)[C@@H](NC(=O)[C@H](Cc1ccccc1)NC(=O)[C@@H](NC(=O)CNC(=O)[C@H](CCC(=O)O)NC(=O)[C@@H](C)NC(=O)[C@@H](N)Cc1ccc(O)cc1)[C@@H](C)O)[C@@H](C)CC)C(=O)N[C@@H](C)C(=O)N[C@@H](CCSC)C(=O)N[C@@H](Cc1c[nH]cn1)C(=O)N1CCC[C@H]1C(=O)N[C@@H](CCC(N)=O)C(=O)N[C@@H](CCC(N)=O)C(=O)N1CCC[C@H]1C(=O)N[C@@H](Cc1c[nH]c2ccccc12)C(=O)N[C@H](C(=O)N[C@@H](CC(C)C)C(=O)O)[C@@H](C)CC [(DAla2)GIP/xenin-8-Gln, TYR-(d)ALA-GLU-GLY-THR-PHE-ILE-SER-ASP-TYR-SER-ILE-ALA-MET-HIS-PRO-GLN-GLN-PRO-TRP-ILE-LEU] (H-Y[dA]EGTFISDYSIAMHPQQPWIL-OH; N-terminus and C-terminus assumed)",half-life at 44.4 µg/mL,DPP-4,> 12 h
same,Intactness on incubation with DPP-4,purified porcine DPP-4,remained fully intact
"CC[C@H](C)[C@H](NC(=O)[C@H](CO)NC(=O)[C@H](Cc1ccc(O)cc1)NC(=O)[C@H](CC(=O)O)NC(=O)[C@H](CO)NC(=O)[C@@H](NC(=O)[C@H](Cc1ccccc1)NC(=O)[C@@H](NC(=O)CNC(=O)[C@H](CCC(=O)O)NC(=O)[C@H](C)NC(=O)[C@@H](N)Cc1ccc(O)cc1)[C@@H](C)O)[C@@H](C)CC)C(=O)N[C@@H](C)C(=O)N[C@@H](CCSC)C(=O)N[C@@H](CC(=O)O)C(=O)N[C@@H](CCCCN)C(=O)N[C@H](C(=O)N[C@@H](Cc1c[nH]cn1)C(=O)N[C@@H](CCC(N)=O)C(=O)N[C@@H](CCC(N)=O)C(=O)N[C@@H](CC(=O)O)C(=O)N[C@@H](Cc1ccccc1)C(=O)N[C@H](C(=O)N[C@@H](CC(N)=O)C(=O)N[C@@H](Cc1c[nH]c2ccccc12)C(=O)N[C@@H](CC(C)C)C(=O)N[C@@H](CC(C)C)C(=O)N[C@@H](C)C(=O)N[C@@H](CCC(N)=O)C(=O)N[C@@H](CCCCN)C(=O)NCC(=O)N[C@@H](CCCCN)C(=O)N[C@@H](CCCCN)C(=O)N[C@@H](CC(N)=O)C(=O)N[C@@H](CC(=O)O)C(=O)N[C@@H](Cc1c[nH]c2ccccc12)C(=O)N[C@@H](CCCCN)C(=O)N[C@@H](Cc1c[nH]cn1)C(=O)N[C@@H](CC(N)=O)C(=O)N[C@H](C(=O)N[C@H](C(=O)N[C@@H](CCC(N)=O)C(=O)O)[C@@H](C)O)[C@@H](C)CC)C(C)C)[C@@H](C)CC [Native GIP, reference compound]",half-life at 44.4 µg/mL,DPP-4,< 1 h
HIS-PRO-GLN-GLN-PRO-TRP-ILE-LEU (HPQQPWIL; listed as Homo sapiens) [xenin-8-Gln],Insulin secretion from BRIN-BD11 cells,BRIN-BD11 cells,significantly (P<0.05 to P<0.001) stimulated insulin secretion
same,Cumulative food intake at 120 min post-injection,lean control mice [1],significant (P<0.05) reductions in cumulative food intake
same,"Glucose lowering or insulin releasing effects, peptide 4 h prior to glucose load",lean control mice [2]; 25 nmol/kg 4 h before glucose 18 mmol/kg,devoid of any beneficial glucose lowering or insulin releasing effects
same,Blood glucose at 30 min post injection,"lean control mice [2]; 25 nmol/kg with glucose 18 mmol/kg i.p., non-fasted mice, vs glucose alone",significantly (P<0.05) lowered blood glucose values
same,Overall 0-105 min AUC blood glucose,"lean control mice [2]; 25 nmol/kg with glucose 18 mmol/kg i.p., vs glucose alone",significantly (P<0.05) decreased
HIS-PRO-GLN-GLN-PRO-TRP-ILE-LEU-GLY-ALA-ALA-GLU-GLU-GLU-GLU-GLU-GLU (HPQQPWILGAAEEEEEE; listed as Homo sapiens) [GIP(L-Glu)],Insulin secretory effect in BRIN BD11 beta-cells of C-terminally modified peptide,"BRIN-BD11 cells; 10^−12-10^−6 M, vs 5.6 mM glucose alone",does not hinder biological activity at the cellular level
"HIS-PRO-LYS-ARG-PRO-TRP-ILE-LEU (HPKRPWIL; listed as Homo sapiens) [xenin-8, reference compound]",Insulin secretion from BRIN-BD11 cells,BRIN-BD11 cells,significantly (P<0.05 to P<0.001) stimulated insulin secretion
"MET-LEU-THR-LYS-PHE-GLU-THR-LYS-SER-ALA-ARG-VAL-LYS-GLY-LEU-SER-PHE-HIS-PRO-LYS-ARG-PRO-TRP-ILE-LEU (MLTKFETKSARVKGLSFHPKRPWIL; listed as Homo sapiens) [xenin, reference compound]",Insulin secretion from BRIN-BD11 cells,BRIN-BD11 cells,significantly (P<0.05 to P<0.001) stimulated insulin secretion
same,Appetite suppressive effect at 90 min post-injection,lean control mice [1]; vs control,significantly (P<0.05) superior to control mice
